Test results from PMC5775429, “LY2087101 and dFBr share transmembrane binding sites in the (α4)3(β2)2 Nicotinic Acetylcholine Receptor” (Scientific Reports, 2018).
Values joined by “and” are separate entries in the source; they are usually repeats but may differ in a detail not shown here. Identical values can stand only once.

What was measured:
Assay in all cases: Two-electrode voltage-clamp of ACh-induced currents in Xenopus oocytes
Type in all cases: cell-based
[1] = target: (α4S258M)3(β2)2 nAChR (Homo sapiens, UniProt P43681, S258M); conditions: 10 µM ACh + 1 µM PAM vs 10 µM ACh alone
Method: (§1) For amino acid substitutions within the α4 nAChR subunit, point mutations were introduced into pSP64ployA plasmid with cDNA encoding for human α4 nAChR subunit with mutagenic primer pairs using the Quick Change II Site-Directed Mutagenesis Kit (Agilent Technologies) then confirmed by DNA sequencing (GENEWIZ, LLC, South Plainfield, NJ). cRNA transcripts suitable for oocyte expression were prepared in vitro from linearized plasmids [α3 (BamH1), α4 (AseI), β2 (PvuII), β4 (XhoI)] using mMESSAGE mMACHINE high yield capped RNA transcription kits (Ambion) and purified on NucAway Spin column (Invitrogen). cRNA concentration was determined by spectroscopy (Concentration (ug/ul) = Abs260 * 40), aliquoted and stored at −80 °C until used.
(§2) Ovarian lobules were surgically harvested from oocytes-positive female Xenopus laevis (NASCO, Fort Atkinson, WI) according to an animal use protocol approved by the Texas A&M Health Sciences Center Institutional Animals Care and Use Committee. The Texas A&M Health Sciences Center Research Facility is registered as an animal research facility with the United States Department of Agriculture and is fully accredited by the American Association for Accreditation of Laboratory Animal Care (AAALAC). For oocytes defolliculation, ovarian lobes were treated with 3 mg/ml collagenase type 2 (Worthington Biomedical, Lakewood, NJ) in Ca + 2-free buffer (85 mM NaCl, 2.5 mM KCl, 1 mM MgCl2, 5 mM HEPES, pH 7.6). Collagenase treatment was allowed to proceed for 3 hours at room temperature with gentle shaking then oocytes were washed several times with buffer to remove collagenase then with ND96-gentamicine buffer. Healthy Stage V and VI oocytes were visually selected and maintained at 18 °C in modified ND96-gentamicine buffer (96 mM NaCl, 2 mM KCl, 1.8 mM CaCl2, 1 mM MgCl2, 5 mM HEPES, 50 µg/ml gentamicin, pH 7.6). Oocytes were injected with 50–100 ng of the desired nAChR subunits cRNA mix at ratios of 8α:1β or 1α:8β to express nAChRs with subunit stoichiometries of 3α:2β (low agonist sensitivity) or 2α:3β (high agonist sensitivity), respectively.
(§3) Oocytes were continuously perfused with recording buffer (100 mM NaCl, 2 mM KCl, 1 mM CaCl2, 0.8 mM MgCl2, 1 mM EGTA, 10 mM Hepes, pH 7.5) except during periods of drug applications.

[2] = target: (α4C259V)3(β2)2 nAChR (Homo sapiens, UniProt P43681, C259V); conditions: 10 µM ACh + 1 µM PAM vs 10 µM ACh alone
Method: as §1, §2, §3

[3] = target: T1, (α4I608L)3(β2)2 nAChR (Homo sapiens, UniProt P17787+P43681, I608L); conditions: 10 µM ACh + 1 µM PAM vs 10 µM ACh alone
T1 construct: expressed in transfected cells; host or cells: Xenopus laevis oocytes injected with cRNA
Method: as §1, §2, §3

[4] = target: T2, (α4S284G)3(β2)2 nAChR (Homo sapiens, UniProt P17787+P43681, S284G); conditions: 10 µM ACh + 1 µM PAM vs 10 µM ACh alone
T2 construct: expressed in transfected cells; host or cells: Xenopus laevis oocytes injected with cRNA
Method: as §1, §2, §3

[5] = target: T3, (α4T313C)3(β2)2 nAChR (Homo sapiens, UniProt P17787+P43681, T313C); conditions: 10 µM ACh + 1 µM PAM vs 10 µM ACh alone
T3 construct: expressed in transfected cells; host or cells: Xenopus laevis oocytes injected with cRNA
Method: as §1, §2, §3

[6] = target: T4, (α4F606Y)3(β2)2 nAChR (Homo sapiens, UniProt P17787+P43681, F606Y)
T4 construct: expressed in transfected cells; host or cells: Xenopus laevis oocytes injected with cRNA
Method: as §1, §2, §3

[7] = target: T5, (α4L310F)3(β2)2 nAChR (Homo sapiens, UniProt P17787+P43681, L310F); conditions: 10 µM ACh + 1 µM PAM vs 10 µM ACh alone
T5 construct: expressed in transfected cells; host or cells: Xenopus laevis oocytes injected with cRNA
Method: as §1, §2, §3

[8] = target: (α4L311V)3(β2)2 nAChR (Homo sapiens, UniProt P43681, L311V); conditions: 10 µM ACh + 1 µM PAM vs 10 µM ACh alone
Method: as §1, §2, §3

[9] = target: T6, (α4I275V)3(β2)2 nAChR (Homo sapiens, UniProt P17787+P43681, I275V); conditions: 10 µM ACh + 1 µM PAM vs 10 µM ACh alone
T6 construct: expressed in transfected cells; host or cells: Xenopus laevis oocytes injected with cRNA
Method: as §1, §2, §3

[10] = target: T7, (α4C254S)3(β2)2 nAChR (Homo sapiens, UniProt P17787+P43681, C254S)
T7 construct: expressed in transfected cells; host or cells: Xenopus laevis oocytes injected with cRNA
Method: as §1, §2, §3

[11] = target: (α4G613L)3(β2)2 nAChR (Homo sapiens, UniProt P43681, G613L)
Method: as §1, §2, §3

[12] = target: T8, (α4I607T)3(β2)2 nAChR (Homo sapiens, UniProt P17787+P43681, I607T); conditions: 10 µM ACh + 1 µM PAM vs 10 µM ACh alone
T8 construct: expressed in transfected cells; host or cells: Xenopus laevis oocytes injected with cRNA
Method: as §1, §2, §3

[13] = target: T9, (α4L260M)3(β2)2 nAChR (Homo sapiens, UniProt P17787+P43681, L260M)
T9 construct: expressed in transfected cells; host or cells: Xenopus laevis oocytes injected with cRNA
Method: as §1, §2, §3

[14] = target: T10, (α4H332Y)3(β2)2 nAChR (Homo sapiens, UniProt P17787+P43681, H332Y); conditions: 10 µM ACh + 1 µM PAM vs 10 µM ACh alone
T10 construct: expressed in transfected cells; host or cells: Xenopus laevis oocytes injected with cRNA
Method: as §1, §2, §3

[15] = target: T11, (α4V609A)3(β2)2 nAChR (Homo sapiens, UniProt P17787+P43681, V609A); conditions: 10 µM ACh + 1 µM PAM vs 10 µM ACh alone
T11 construct: expressed in transfected cells; host or cells: Xenopus laevis oocytes injected with cRNA
Method: as §1, §2, §3

[16] = target: T12, (α4F312V)3(β2)2 nAChR (Homo sapiens, UniProt P17787+P43681, F312V)
T12 construct: expressed in transfected cells; host or cells: Xenopus laevis oocytes injected with cRNA
Method: as §1, §2, §3

[17] = target: T13, (α4T261D)3(β2)2 nAChR (Homo sapiens, UniProt P17787+P43681, T261D); conditions: 10 µM ACh + 1 µM PAM vs 10 µM ACh alone
T13 construct: expressed in transfected cells; host or cells: Xenopus laevis oocytes injected with cRNA
Method: as §1, §2, §3

[18] = target: T14, (α4M605V)3(β2)2 nAChR (Homo sapiens, UniProt P17787+P43681, M605V); conditions: 10 µM ACh + 1 µM PAM vs 10 µM ACh alone
T14 construct: expressed in transfected cells; host or cells: Xenopus laevis oocytes injected with cRNA
Method: as §1, §2, §3

[19] = 10 µM ACh + 1 µM PAM vs 10 µM ACh alone
[20] = ACh concentration-response curve, normalized to 1 mM ACh alone

T12 sequence (P43681 29-627 F312V limits assumed): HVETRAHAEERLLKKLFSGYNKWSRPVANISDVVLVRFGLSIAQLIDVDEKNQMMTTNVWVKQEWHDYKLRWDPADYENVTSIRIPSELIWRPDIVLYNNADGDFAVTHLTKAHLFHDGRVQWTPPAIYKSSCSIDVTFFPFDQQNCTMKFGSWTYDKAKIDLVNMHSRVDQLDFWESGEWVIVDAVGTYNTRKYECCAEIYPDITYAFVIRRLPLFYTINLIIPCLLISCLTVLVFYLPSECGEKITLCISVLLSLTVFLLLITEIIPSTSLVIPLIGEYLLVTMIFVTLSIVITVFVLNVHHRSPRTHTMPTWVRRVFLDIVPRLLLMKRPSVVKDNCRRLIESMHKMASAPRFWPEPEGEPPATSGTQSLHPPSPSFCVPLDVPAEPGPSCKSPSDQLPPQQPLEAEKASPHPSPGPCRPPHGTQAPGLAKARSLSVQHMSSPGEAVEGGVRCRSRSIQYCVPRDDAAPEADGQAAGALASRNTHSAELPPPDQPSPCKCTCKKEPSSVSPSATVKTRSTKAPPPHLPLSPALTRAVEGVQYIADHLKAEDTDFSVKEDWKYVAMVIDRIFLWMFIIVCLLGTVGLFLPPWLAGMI
T12 sequence (P17787 26-502): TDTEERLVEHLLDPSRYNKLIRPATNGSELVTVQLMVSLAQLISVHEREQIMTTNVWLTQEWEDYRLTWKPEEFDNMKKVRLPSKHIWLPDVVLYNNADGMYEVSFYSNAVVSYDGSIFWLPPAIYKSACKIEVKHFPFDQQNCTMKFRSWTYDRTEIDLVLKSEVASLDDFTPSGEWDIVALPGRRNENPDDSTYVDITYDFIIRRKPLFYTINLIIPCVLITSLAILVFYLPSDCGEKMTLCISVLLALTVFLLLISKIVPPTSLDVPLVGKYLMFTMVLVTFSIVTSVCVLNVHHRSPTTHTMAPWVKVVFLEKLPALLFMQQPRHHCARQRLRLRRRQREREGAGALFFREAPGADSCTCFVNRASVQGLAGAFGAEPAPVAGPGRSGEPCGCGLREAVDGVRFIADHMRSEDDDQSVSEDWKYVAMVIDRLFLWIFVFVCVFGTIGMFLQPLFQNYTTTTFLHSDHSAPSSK
T7 sequence (P43681 29-627 C254S limits assumed): as the sequence (P43681 29-627 F312V limits assumed) above, with C226S, V284F counted along it
T7 sequence (P17787 26-502): as the sequence (P17787 26-502) above
Chain of (α4G613L)3(β2)2 nAChR (P43681 29-627 G613L limits assumed): as the sequence (P43681 29-627 F312V limits assumed) above, with V284F, G585L counted along it
Chain of (α4G613L)3(β2)2 nAChR (P17787 26-502 partner): as the sequence (P17787 26-502) above
T9 sequence (P43681 29-627 L260M limits assumed): as the sequence (P43681 29-627 F312V limits assumed) above, with L232M, V284F counted along it
T9 sequence (P17787 26-502): as the sequence (P17787 26-502) above
T13 sequence (P43681 29-627 T261D limits assumed): as the sequence (P43681 29-627 F312V limits assumed) above, with T233D, V284F counted along it
T13 sequence (P17787 26-502): as the sequence (P17787 26-502) above
T4 sequence (P43681 29-627 F606Y limits assumed): as the sequence (P43681 29-627 F312V limits assumed) above, with V284F, F578Y counted along it
T4 sequence (P17787 26-502): as the sequence (P17787 26-502) above
T14 sequence (P43681 29-627 M605V limits assumed): as the sequence (P43681 29-627 F312V limits assumed) above, with V284F, M577V counted along it
T14 sequence (P17787 26-502): as the sequence (P17787 26-502) above
T5 sequence (P43681 29-627 L310F limits assumed): as the sequence (P43681 29-627 F312V limits assumed) above, with L282F, V284F counted along it
T5 sequence (P17787 26-502): as the sequence (P17787 26-502) above
T11 sequence (P43681 29-627 V609A limits assumed): as the sequence (P43681 29-627 F312V limits assumed) above, with V284F, V581A counted along it
T11 sequence (P17787 26-502): as the sequence (P17787 26-502) above
Chain of (α4L311V)3(β2)2 nAChR (P43681 29-627 L311V limits assumed): as the sequence (P43681 29-627 F312V limits assumed) above, with L283V, V284F counted along it
Chain of (α4L311V)3(β2)2 nAChR (P17787 26-502 partner): as the sequence (P17787 26-502) above
T10 sequence (P43681 29-627 H332Y limits assumed): as the sequence (P43681 29-627 F312V limits assumed) above, with V284F, H304Y counted along it
T10 sequence (P17787 26-502): as the sequence (P17787 26-502) above
T1 sequence (P43681 29-627 I608L limits assumed): as the sequence (P43681 29-627 F312V limits assumed) above, with V284F, I580L counted along it
T1 sequence (P17787 26-502): as the sequence (P17787 26-502) above
Chain of (α4S258M)3(β2)2 nAChR (P43681 29-627 S258M limits assumed): as the sequence (P43681 29-627 F312V limits assumed) above, with S230M, V284F counted along it
Chain of (α4S258M)3(β2)2 nAChR (P17787 26-502 partner): as the sequence (P17787 26-502) above
T8 sequence (P43681 29-627 I607T limits assumed): as the sequence (P43681 29-627 F312V limits assumed) above, with V284F, I579T counted along it
T8 sequence (P17787 26-502): as the sequence (P17787 26-502) above
T2 sequence (P43681 29-627 S284G limits assumed): as the sequence (P43681 29-627 F312V limits assumed) above, with S256G, V284F counted along it
T2 sequence (P17787 26-502, stated change not applied): as the sequence (P17787 26-502) above
T3 sequence (P43681 29-627 T313C limits assumed): as the sequence (P43681 29-627 F312V limits assumed) above, with V284F, T285C counted along it
T3 sequence (P17787 26-502): as the sequence (P17787 26-502) above
Chain of (α4C259V)3(β2)2 nAChR (P43681 29-627 C259V limits assumed): as the sequence (P43681 29-627 F312V limits assumed) above, with C231V, V284F counted along it
Chain of (α4C259V)3(β2)2 nAChR (P17787 26-502 partner): as the sequence (P17787 26-502) above
T6 sequence (P43681 29-627 I275V limits assumed): as the sequence (P43681 29-627 F312V limits assumed) above, with I247V, V284F counted along it
T6 sequence (P17787 26-502): as the sequence (P17787 26-502) above

In the case of `C=CC(C)(C)c1[nH]c2cc(Br)ccc2c1CCNC` [dFBr], the “R, potentiation ratio (PR)” value [1] is reported as 5.0 ± 0.5, the “R, potentiation ratio (PR)” value [2] is reported as 4.6 ± 0.9 and the “R, potentiation ratio (PR)” value [3] is reported as 5.4 ± 0.4. The “R, potentiation ratio (PR)” value [4] was 2.8 ± 0.4, the “R, potentiation ratio (PR)” value [5] was 3.9 ± 0.4 and the “R, potentiation ratio (PR)” value [6, 19] was 3.1 ± 0.4. The “ACh Imax in the presence of 1 µM dFBr” value [6, 20] was 159 ± 07%, the “R, potentiation ratio (PR)” value [7] was 5.6 ± 0.3 and the “R, potentiation ratio (PR)” value [8] was 5.8 ± 1.4. For the same compound, the “R, potentiation ratio (PR)” value [9] was 4.0 ± 0.6, the “R, potentiation ratio (PR)” value [10, 19] was 3.6 ± 0.4 and the “ACh Imax in the presence of 1 µM dFBr” value [10, 20] was 190 ± 08%. For the same compound, the “dFBr potentiation h (Hill coefficient)” value ([10]; co-applied with 10 μM ACh) was 0.8 ± 0.1, the “dFBr potentiation Imax” value ([10]; normalized to 10 µM ACh alone) was 430 ± 31% and the EC50 ([10]; read-out: dFBr potentiation EC50) was 1500 ± 500 nM. The “R, potentiation ratio (PR)” value [11, 19] was 0.8 and 0.8 ± 0.1, the “ACh Imax in the presence of 1 µM dFBr” value [11, 20] was 157 ± 19% and the “dFBr concentration-dependent potentiation of ACh-current responses” value ([11]; dFBr up to 10 µM, 10 μM ACh) was “did not potentiate”. The inhibition at 10 µM ([11]; read-out: inhibition of ACh-current response at 10 μM dFBr) was ~65%, the “R, potentiation ratio (PR)” value [12] was 4.7 ± 2.1 and the “R, potentiation ratio (PR)” value [13, 19] was 3.6 ± 0.4. For the same compound, the “ACh Imax in the presence of 1 µM dFBr” value [13, 20] was 250 ± 36%, the “R, potentiation ratio (PR)” value [14] was 5.5 ± 0.4 and the “R, potentiation ratio (PR)” value [15] was 3.2 ± 0.2. The “R, potentiation ratio (PR)” value [16, 19] was 1.2 and ~ 1.2 and 1.2 ± 0.1, the “dFBr concentration-dependent potentiation of ACh-current responses” value ([16]; dFBr up to 10 µM, 10 μM ACh) was “did not potentiate” and the “R, potentiation ratio (PR)” value [17] was ~ 2.1 and 2.1 ± 0.1. For the same compound, the “R, potentiation ratio (PR)” value [18] was 5.3 ± 1.2.
